What was measured:
[1] = system: isoniazide-induced seizures in mice; test: Isoniazide antagonism (isoniazide 300 mg/kg s.c. induced convulsions); assay type: in vivo, mouse; design: unit: mg/kg; details: i.p. test compound, table does not say whether MED or ED50
Description: Isoniazide 300 mg/kg s.c.
Five mice are used for each dose level.
Immediately after administration of test substance, isoniazide 300 mg/kg is injected s.c. This dose of isoniazide induces intermittent tonic clonic seizures within 60 minutes.
The calculations are performed as an "on line procedure" on the EDP-terminal. […] ED50 is determined as the dose in mg/kg which increases the time 50%.

mouse pain threshold = test: Mouse grid shock (analgesic effect, pain threshold); assay type: in vivo; details: male mice, + not defined
Description: The mouse grid consists of a perspex cage with wire grid bottom and a perspex lid, on which is placed a microphone sensitive to the frequency of a mouse-squeak. A stimulator with motordriven potentiometer applies a sequence of square wave impulses of continuously increasing milliamperage to the grid. Frequency of impulses 20 cycles/sec., duration 5 msec. Milliamperage is recorded on a digital amperemeter connected to the stimulator. Activation of the microphone by a mouse-squeak cuts off the current and the final milliamperage appear on the meter.
Five mice are used for each dose level. Each mouse serves as its own control.
Prior to the administration of test substance the animals are placed on the grid one at a time and the pain threshold is determined by increasing the current intensity until the mouse squeaks. The pain threshold may be read on the milliamperemeter.
Fifteen minutes and 30 minutes after administration of test substance the mice are tested again and the pain thresholds recorded.
Analgesic effect is present when the pain threshold is increased over the pre-dosing value (control value). The results are stated as % increase in pain threshold calculated on the basis of the control value. The registration can also be done as an on-line procedure. […]

[2] = target: ^3 H-GABA binding to rat brain membranes; test: ^3 H-GABA binding to rat brain membranes; details: 10 nM ^3 H-GABA, on ice 5 min
Description: 0.32 M sucrose (made fresh every day)
0.05 N Tris-citrate buffer (pH ~6.8)
^3 H-GABA=aminobutyric acid, γ-2,3-^3 H(N) approx.
35 Ci/mmol, from New England Nuclear
(diluted daily to 1 μM in water)
A. Preparation of membranes
Rats are killed by a blow to their head, exsanguinated and their brains removed and cooled in icecold saline. After rinsing and weighing two brains are pooled and homogenized in 40 ml of icecold 0.32 M sucrose using a motor-driven homogenizer with teflon pestle (6 strokes up and down, slow speed rotation).
The samples are centrifuged for 10 min. at 900 g, and thereafter the supernatants are centrifuged for 20 min. at 17,000 g (4° C.). […]
Incubation tubes in duplicate receive on ice 780 μl of water, 200 μl of drug dissolved in water, 20 μl of 1 μM ^3 H-GABA (final concentration of ^3 H-GABA in tubes=10 nM) and 1000 μl of the membrane suspension. […] Ten ml of Instagel or Lumagel containing 10 ml of acetic acid per 1 are added, and the radioactivity are determined by liquid scintillation counting. The unspecific binding of ^3 H-GABA is determined by incubating the samples with 1 mM of GABA. […]
The means of controls and 1 mM GABA samples are calculated. […] The IC50-values are determined as the concentrations, at which the binding is 50 percent of the total binding minus the unspecific binding.

[3] = THIP, European Patent Application No. 78 100 191.2; cited from earlier work
[4] = THIP, prior art; cited from earlier work

Row | SMILES | Isoniazide antagonism [1] | also measured
1 | CC(=O)n1oc2c(c1=O)CCNC2 [Example 3, 2-Acetyl-4,5,6,7-tetrahydroisoxazolo[5,4-c]-pyridine-3-one] | weak effect | Mouse grid shock (mouse pain threshold): no effect; IC50 [2]: > 100 µM
2 | NC(=O)n1oc2c(c1=O)CCNC2 [Example 5, 2-Carbamoyl-4,5,6,7-tetrahydroisoxazolo[5,4-c]-pyridine-3-one] | 5.8 | 
3 | CNC(=O)n1oc2c(c1=O)CCNC2 [Example 6, 2-(N-methylcarbamoyl)-4,5,6,7-tetrahydroisoxazolo[5,4-c]pyridine-3-one] | 1.3 | 
4 | O=C(NC1CCCCC1)n1oc2c(c1=O)CCNC2 [Example 7, 2-(N-cyclohexylcarbamoyl)-4,5,6,7-tetrahydroisoxazolo[5,4-c]pyridine-3-one] | 2.1 | 
5 | Oc1noc2c1CCNC2 [THIP, 4,5,6,7-tetrahydroisoxazolo[5,4-c]pyridine-3-ol] | 1.3 | GABA-related activity [3]: having GABA-related activity; duration of action [4]: relatively shortacting; side effects [4]: some side effects

Source: US4353910A, “Derivatives of 4,5,6,7-tetrahydroisoxazolo [5,4-c] pyridine-3-one, pharmaceutical compositions and methods of treatment” (priority 1981, dated 1982)
